# Tests used:
# ABUTH (Velvetleaf) = assay: Postemergence herbicidal evaluation; assay type: in vivo, Abutilon theophrasti; conditions: postemergence
# How it was run: (§1)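 Visual 0–9 rating versus control (stand, vigor, malformation, size, chlorosis, overall appearance), taken four to five weeks post-spray. Two-week-old seedlings received roughly 0.0156–0.500 kg/ha active in acetone/water (50/50) with 0.5% TWEEN 20 via nozzle at 40 psi.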
# [1] = system: IPOHE (Morningglory, Ivyleaf); assay: Postemergence herbicidal evaluation; assay type: in vivo, Ipomoea hederacea; conditions: postemergence
# How it was run: as §1
# [2] = system: TRZAWR (Wheat, Winter, cv Riband); assay: Postemergence herbicidal evaluation; assay type: in vivo, Triticum aestivum; conditions: postemergence
# How it was run: as §1
# [3] = system: CHEAL (Lambsquarters, Common); assay: Preemergence herbicidal evaluation; assay type: in vivo, Chenopodium album; conditions: rated 4-5 weeks after treatment
# How it was run: (§2)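 Sown cups got a single aqueous acetone spray of test compound (roughly 0.0156–0.500 kg/ha) before seedlings emerged. Evaluation, 4–5 weeks on, used a 0–9 visual scale covering plant stand, vigor, size, malformation, chlorosis and general appearance compared with controls.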
# [4] = system: IPOHE (Morningglory, Ivyleaf); assay: Preemergence herbicidal evaluation; assay type: in vivo, Ipomoea hederacea; conditions: rated 4-5 weeks after treatment
# How it was run: as §2
# ECHCG (Barnyardgrass) = assay: Preemergence herbicidal evaluation; assay type: in vivo, Echinochloa crus-galli; conditions: rated 4-5 weeks after treatment
# How it was run: as §2
# SETVI (Foxtail, Green) = assay: Preemergence herbicidal evaluation; assay type: in vivo, Setaria viridis; conditions: rated 4-5 weeks after treatment
# How it was run: as §2
# ORYSAT (Rice, Tebonnet) = assay: Preemergence herbicidal evaluation; assay type: in vivo, Oryza sativa, (L.) Tebonnet; conditions: rated 4-5 weeks after treatment
# How it was run: as §2
# [5] = system: TRZAWR (Wheat, Winter, cv Riband); assay: Preemergence herbicidal evaluation; assay type: in vivo, Triticum aestivum; conditions: rated 4-5 weeks after treatment
# How it was run: as §2
# [6] = system: ECHORC (Watergrass (Calif.)); assay: Preemergence weed control under flooded paddy conditions; assay type: in vivo, Echinochloa oryzoides; conditions: rated 3-4 weeks after treatment
# How it was run: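 Visual injury scored 0-9 against control three to four weeks post-treatment, greenhouse-grown. Application: acetone/water (50/50) solutions dosed directly into flood water (1.5-3 cm over silt loam, planted top 0.5 cm), roughly 0.0313 to 0.500 kg/ha active ingredient.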
# MOOVA (Monochoria) = assay: as above; assay type: in vivo, Monochoria vaginalis; conditions: rated 3-4 weeks after treatment
# How it was run: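 Ratings on a 0-9 visual scale cover stand, vigor, malformation, size, chlorosis and overall appearance relative to a control, taken three to four weeks post-treatment. Application was into flood water over freshly sown silt loam at roughly 0.0313 to 0.500 kg/ha.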
# [7] = system: ECHORC (Watergrass (Calif.)); assay: Postemergence weed control under flooded paddy conditions; assay type: in vivo, Echinochloa oryzoides; conditions: postemergence weeds, 3-4 weeks after treatment
# How it was run: (§3)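 Injury ratings (0–9 scale covering stand, vigor, malformation, size, chlorosis and overall appearance versus control) were made three to four weeks after treatment. Test material, about 0.0313 to 0.500 kg/ha a.i. in 50/50 v/v aqueous/acetone, was added to flood water 1.5 to 3 cm deep over 3 to 5 cm weeds and 1.5 to 2.5 leaf rice.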
# CYPIR (Rice Flatsedge) = assay: as above; assay type: in vivo, Cyperus iria; conditions: postemergence weeds, 3-4 weeks after treatment
# How it was run: as §3
compound,measurement,setting,value
"COC(=O)CN1C(=O)CSC1=Nc1cc(-n2c(=O)cc(C(F)(F)F)n(C)c2=O)c(F)cc1Cl [Compound 17, Methyl 2-{{2-chloro-5-[3,6-dihydro-3-methyl-2,6-dioxo-4-(trifluoromethyl)-1(2H)-pyrimidinyl]-4-fluorophenyl}imino}-4-oxo-3-thiazolidineacetate]",ABUTH herbicidal rating,ABUTH (Velvetleaf); rate 0.0156 kg/ha,9.0
same,ABUTH herbicidal rating,ABUTH (Velvetleaf); rate 0.0313 kg/ha,9.0
same,ABUTH herbicidal rating,ABUTH (Velvetleaf); rate 0.0625 kg/ha,9.0
same,ABUTH herbicidal rating,ABUTH (Velvetleaf); rate 0.1250 kg/ha,9.0
same,IPOHE herbicidal rating,[1]; rate 0.0156 kg/ha,7.0
same,IPOHE herbicidal rating,[1]; rate 0.0313 kg/ha,8.5
same,IPOHE herbicidal rating,[1]; rate 0.0625 kg/ha,9.0
same,IPOHE herbicidal rating,[1]; rate 0.1250 kg/ha,9.0
same,TRZAWR herbicidal rating,[2]; rate 0.0156 kg/ha,3.3
same,TRZAWR herbicidal rating,[2]; rate 0.0313 kg/ha,4.5
same,TRZAWR herbicidal rating,[2]; rate 0.0625 kg/ha,5.5
same,TRZAWR herbicidal rating,[2]; rate 0.1250 kg/ha,7.3
same,CHEAL preemergence herbicidal rating,[3]; rate 0.0156 kg/ha,4.5
same,CHEAL preemergence herbicidal rating,[3]; rate 0.0313 kg/ha,6.0
same,CHEAL preemergence herbicidal rating,[3]; rate 0.0625 kg/ha,9.0
same,CHEAL preemergence herbicidal rating,[3]; rate 0.1250 kg/ha,9.0
same,CHEAL preemergence herbicidal rating,[3]; rate 0.2500 kg/ha,9.0
same,CHEAL preemergence herbicidal rating,[3]; rate 0.5000 kg/ha,9.0
same,IPOHE preemergence herbicidal rating,[4]; rate 0.0156 kg/ha,0.5
same,IPOHE preemergence herbicidal rating,[4]; rate 0.0313 kg/ha,0.7
same,IPOHE preemergence herbicidal rating,[4]; rate 0.0625 kg/ha,4.0
same,IPOHE preemergence herbicidal rating,[4]; rate 0.1250 kg/ha,5.7
same,IPOHE preemergence herbicidal rating,[4]; rate 0.2500 kg/ha,9.0
same,IPOHE preemergence herbicidal rating,[4]; rate 0.5000 kg/ha,9.0
same,ECHCG preemergence herbicidal rating,ECHCG (Barnyardgrass); rate 0.0156 kg/ha,0.5
same,ECHCG preemergence herbicidal rating,ECHCG (Barnyardgrass); rate 0.0313 kg/ha,0.7
same,ECHCG preemergence herbicidal rating,ECHCG (Barnyardgrass); rate 0.0625 kg/ha,1.0
same,ECHCG preemergence herbicidal rating,ECHCG (Barnyardgrass); rate 0.1250 kg/ha,0.7
same,ECHCG preemergence herbicidal rating,ECHCG (Barnyardgrass); rate 0.2500 kg/ha,4.3
same,ECHCG preemergence herbicidal rating,ECHCG (Barnyardgrass); rate 0.5000 kg/ha,9.0
same,SETVI preemergence herbicidal rating,"SETVI (Foxtail, Green); rate 0.0156 kg/ha",0.5
same,SETVI preemergence herbicidal rating,"SETVI (Foxtail, Green); rate 0.0313 kg/ha",1.3
same,SETVI preemergence herbicidal rating,"SETVI (Foxtail, Green); rate 0.0625 kg/ha",2.3
same,SETVI preemergence herbicidal rating,"SETVI (Foxtail, Green); rate 0.1250 kg/ha",6.7
same,SETVI preemergence herbicidal rating,"SETVI (Foxtail, Green); rate 0.2500 kg/ha",9.0
same,SETVI preemergence herbicidal rating,"SETVI (Foxtail, Green); rate 0.5000 kg/ha",9.0
same,ORYSAT preemergence herbicidal rating,"ORYSAT (Rice, Tebonnet); rate 0.0156 kg/ha",0.0
same,ORYSAT preemergence herbicidal rating,"ORYSAT (Rice, Tebonnet); rate 0.0313 kg/ha",0.0
same,ORYSAT preemergence herbicidal rating,"ORYSAT (Rice, Tebonnet); rate 0.0625 kg/ha",1.0
same,ORYSAT preemergence herbicidal rating,"ORYSAT (Rice, Tebonnet); rate 0.1250 kg/ha",1.0
same,ORYSAT preemergence herbicidal rating,"ORYSAT (Rice, Tebonnet); rate 0.2500 kg/ha",3.3
same,ORYSAT preemergence herbicidal rating,"ORYSAT (Rice, Tebonnet); rate 0.5000 kg/ha",6.5
same,TRZAWR preemergence herbicidal rating,[5]; rate 0.0156 kg/ha,0.0
same,TRZAWR preemergence herbicidal rating,[5]; rate 0.0313 kg/ha,0.0
same,TRZAWR preemergence herbicidal rating,[5]; rate 0.0625 kg/ha,0.0
same,TRZAWR preemergence herbicidal rating,[5]; rate 0.1250 kg/ha,2.0
same,TRZAWR preemergence herbicidal rating,[5]; rate 0.2500 kg/ha,7.0
same,TRZAWR preemergence herbicidal rating,[5]; rate 0.5000 kg/ha,7.0
same,Herbicidal rating ECHORC,[6]; 0.0313 kg/ha,4.0
same,Herbicidal rating ECHORC,[6]; 0.0625 kg/ha,9.0
same,Herbicidal rating ECHORC,[6]; 0.1250 kg/ha,9.0
same,Herbicidal rating ECHORC,[6]; 0.2500 kg/ha,9.0
same,Herbicidal rating MOOVA,MOOVA (Monochoria); 0.0313 kg/ha,9.0
same,Herbicidal rating MOOVA,MOOVA (Monochoria); 0.0625 kg/ha,9.0
same,Herbicidal rating MOOVA,MOOVA (Monochoria); 0.1250 kg/ha,9.0
same,Herbicidal rating MOOVA,MOOVA (Monochoria); 0.2500 kg/ha,9.0
same,Herbicidal rating ECHORC,[7]; rate 0.0313 kg/ha,4.0
same,Herbicidal rating ECHORC,[7]; rate 0.0625 kg/ha,9.0
same,Herbicidal rating ECHORC,[7]; rate 0.1250 kg/ha,9.0
same,Herbicidal rating ECHORC,[7]; rate 0.2500 kg/ha,9.0
same,Herbicidal rating CYPIR,CYPIR (Rice Flatsedge); rate 0.0313 kg/ha,0.0
same,Herbicidal rating CYPIR,CYPIR (Rice Flatsedge); rate 0.0625 kg/ha,0.0
same,Herbicidal rating CYPIR,CYPIR (Rice Flatsedge); rate 0.1250 kg/ha,6.0
same,Herbicidal rating CYPIR,CYPIR (Rice Flatsedge); rate 0.2500 kg/ha,9.0

# Reference: patent US20020137929A1, “1 - (3-heterocyclylphenyl) isothiourea, -isourea, -guanidine and -amidine herbicidal agents” (Intellectual Property Department, BASF Aktiengesellschaft, priority 1998, published 2002)
